Results published in PubChem BioAssay (NCI).
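In this assay, cells in 96-well plates receive the compound at five concentrations for 48 hours. Endpoints are linearly interpolated between the surrounding concentrations. TGI is the concentration that stops growth completely.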

What was measured:
Test in all cases: DTP human tumour cell line panel, 48 h
A498 renal = system: A498 renal
SF-539 CNS = system: SF-539 CNS
UACC-62 melanoma = system: UACC-62 melanoma
HT29 colon = system: HT29 colon
ACHN renal = system: ACHN renal
SN12C renal = system: SN12C renal
SF-295 CNS = system: SF-295 CNS
BT-549 breast = system: BT-549 breast
SK-MEL-5 melanoma = system: SK-MEL-5 melanoma
K-562 leukemia = system: K-562 leukemia
UACC-257 melanoma = system: UACC-257 melanoma
NCI-H23 lung = system: NCI-H23 lung
CCRF-CEM leukemia = system: CCRF-CEM leukemia
NCI-H460 lung = system: NCI-H460 lung
OVCAR-3 ovarian = system: OVCAR-3 ovarian
COLO 205 colon = system: COLO 205 colon
SNB-75 CNS = system: SNB-75 CNS
T-47D breast = system: T-47D breast

Row | Compound | TGI (A498 renal) [µM] | TGI (SF-539 CNS) [µM] | TGI (UACC-62 melanoma) [µM] | TGI (HT29 colon) [µM] | TGI (ACHN renal) [µM] | TGI (SN12C renal) [µM] | TGI (SF-295 CNS) [µM] | TGI (BT-549 breast) [µM] | TGI (SK-MEL-5 melanoma) [µM] | TGI (K-562 leukemia) [µM] | TGI (UACC-257 melanoma) [µM] | TGI (NCI-H23 lung) [µM] | TGI (CCRF-CEM leukemia) [µM] | TGI (NCI-H460 lung) [µM] | TGI (OVCAR-3 ovarian) [µM] | TGI (COLO 205 colon) [µM] | TGI (SNB-75 CNS) [µM] | TGI (T-47D breast) [µM]
1 | O=C(c1ccc(Cl)c(Cl)c1)N(C(=S)OC12CC3CC(CC(C3)C1)C2)c1ccccc1 | > 100 | > 100 | 98.5 | > 100 | > 100 | > 100 | > 100 | > 100 | 40.1 | > 100 | > 100 | > 100 | > 100 | > 100 | > 100 | 29.4 | > 100 | > 100
2 | COc1ccc(C[C@@H]2OC3(C=CC(=O)CC3Sc3ccccc3)O[C@H]2Cc2ccc(OC)cc2)cc1 (stereo not given in full) | 16.1 | 3 | 5.12 | 3.19 | 2.81 | 5.22 | 4.69 | 1.49 | 3.09 | > 100 | 3.16 | 5.16 | 0.768 | 12.1 | 3.15 | 3.36 | 3.05 | 3.74
3 | COc1ccc(/C(=N/Nc2nc3ccccc3n2Cc2ccccc2)C(=O)O)cc1 | 44.5 | 85.1 | 21.4 | > 100 | > 100 | > 100 | > 100 | > 100 | 37.6 | 68.5 | > 100 | 43.3 | 27.8 | 21.4 | > 100 | > 100 | 81.9 | 70.7
4 | NN/C(=N\S(=O)(=O)c1cc(S(=O)(=O)c2ccccc2)cs1)Nc1ccc(Cl)cc1 | > 100 | > 100 | 43.2 | > 100 | > 100 | > 100 | 75.5 | > 100 | 32.3 | > 100 | 47.5 | > 100 | 69.2 | 56.6 | 54.2 | 43.4 | 67.2 | 55.9
5 | COC1=CC(=O)C2=C(C1=O)[C@H]1CC[C@]3(C)C(=O)CC[C@H]3[C@@H]1CC2 | > 100 | 38.1 | > 100 | 75.3 | 79.3 | 44.5 | > 100 | 71.2 | 33.2 | > 100 | 58.7 | > 100 | 26.9 | > 100 | 52.3 | > 100 | > 100 | 57.2
6 | CN1CCOC1(C)c1ccccc1 (stereo not given) | > 100 | > 100 | > 100 | > 100 | > 100 | > 100 | > 100 | > 100 | > 100 | > 100 | > 100 | > 100 | > 100 | > 100 | > 100 | > 100 | > 100 | > 100
7 | O=C(NCCc1ccccn1)c1ccc2cc(C(=O)N3CC(CCl)c4ccc([N+](=O)[O-])cc43)[nH]c2c1 (stereo not given) | > 100 | > 100 | > 67.4 | > 100 | > 100 | > 100 | > 68.5 | > 100 | > 100 | > 100 | > 100 | > 100 | > 100 | > 100 | 28.2 | > 100 | > 100 | > 100
8 | COC(=O)C1=C(C)NC(CF)=C(C(=O)OC)C1c1cccc2c(=O)c3ccccc3oc12 (stereo not given) | 94.5 | > 100 | > 100 | > 100 | > 100 | > 100 | 22.7 | > 100 | > 100 | > 100 | > 100 | > 100 | > 100 | > 100 | 66.8 | 22.8 | > 100 | > 100
9 | CC(=O)OC1CCn2c1nc1c2C(=O)C=C(N2CC2)C1=O (stereo not given) | 0.613 | 0.696 | 0.214 | 2.08 | 0.173 | 1.86 | 5.61 | 2.54 | 0.305 | 4.54 | 1.02 | 1.08 | 1.17 | 5.96 | 0.546 | 0.219 | 0.479 | 2.38
10 | O=C1CC(=O)NC(=NN2C(=O)CSC2c2ccc(Cl)cc2)N1 (stereo not given) | > 100 | > 100 | > 100 | > 100 | > 100 | 47.6 | > 100 | > 100 | > 100 | > 100 | > 100 | > 100 | 83.3 | > 100 | > 100 | > 100 | > 100 | > 100
